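Tested at 5 concentrations; 48 h exposure; 96-well plates; endpoints linearly interpolated, else capped at highest concentration. Abbreviation: GI50, concentration required for 50% inhibition of growth.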 Active and inactive are the calls of the source. Cut-off read from the data, not from the text of the source: active = GI50 up to about 1.1 µM and inactive = higher.
Tests used:
Test in all cases: NCI-60 cell line screen, 48 h
786-0 = test system: 786-0
A498 = test system: A498
A549 = test system: A549
ACHN = test system: ACHN
CAKI-1 = test system: CAKI-1
CCRF-CEM = test system: CCRF-CEM
COLO 205 = test system: COLO 205
DLD-1 = test system: DLD-1
DMS-114 = test system: DMS-114
EKVX = test system: EKVX
HCC 2998 = test system: HCC 2998
HCT-116 = test system: HCT-116
HCT-15 = test system: HCT-15
HL-60 = test system: HL-60
HOP-18 = test system: HOP-18
HOP-62 = test system: HOP-62
HOP-92 = test system: HOP-92
HT-29 = test system: HT-29
IGROV-1 = test system: IGROV-1
K562 = test system: K562
KM-20L2 = test system: KM-20L2
KM12 = test system: KM12
LOX IMVI = test system: LOX IMVI
LXFL 529 = test system: LXFL 529
M14 = test system: M14
M19-MEL = test system: M19-MEL
MOLT-4 = test system: MOLT-4
Malme-3M = test system: Malme-3M
NCI-H226 = test system: NCI-H226
NCI-H23 = test system: NCI-H23
NCI-H460 = test system: NCI-H460
NCI-H522 = test system: NCI-H522
OVCAR-3 = test system: OVCAR-3
OVCAR-4 = test system: OVCAR-4
OVCAR-5 = test system: OVCAR-5
OVCAR-8 = test system: OVCAR-8
RPMI-8226 = test system: RPMI-8226
RXF 393 = test system: RXF 393
RXF 631 = test system: RXF 631
SF-268 = test system: SF-268
SF-295 = test system: SF-295
SF-539 = test system: SF-539
SK-MEL-28 = test system: SK-MEL-28
SK-MEL-5 = test system: SK-MEL-5
SK-OV-3 = test system: SK-OV-3
SN12C = test system: SN12C
SNB-19 = test system: SNB-19
SNB-75 = test system: SNB-75
SNB-78 = test system: SNB-78
SR = test system: SR
SW-620 = test system: SW-620
TK-10 = test system: TK-10
U-251 = test system: U-251
UACC-257 = test system: UACC-257
UACC-62 = test system: UACC-62
UO-31 = test system: UO-31
DMS-273 = test system: DMS-273

With `Cc1c(C)c2ccc3oc4ccccc4c3c2oc1=O` the GI50 (786-0) was > 100 µM (inactive), the GI50 (A498) was > 100 µM (inactive) and the GI50 (A549) was > 100 µM (inactive). The GI50 (ACHN) was > 100 µM (inactive), the GI50 (CAKI-1) was > 100 µM (inactive) and the GI50 (CCRF-CEM) was > 100 µM (inactive). For the same molecule, the GI50 (COLO 205) was > 100 µM (inactive), the GI50 (DLD-1) was > 100 µM (inactive) and the GI50 (DMS-114) was 86.7 µM (inactive). The GI50 (EKVX) was > 100 µM (inactive), the GI50 (HCC 2998) was > 100 µM (inactive) and the GI50 (HCT-116) was 96.4 µM (inactive). The GI50 (HCT-15) was over 100 µM, the GI50 (HL-60) was > 100 µM (inactive) and the GI50 (HOP-18) was > 100 µM (inactive). The GI50 (HOP-62) was > 100 µM (inactive), the GI50 (HOP-92) was 52.6 µM (inactive) and the GI50 (HT-29) was > 100 µM (inactive). The GI50 (IGROV-1) was > 100 µM (inactive), the GI50 (K562) was > 100 µM (inactive) and the GI50 (KM-20L2) was > 100 µM (inactive). For the same molecule, the GI50 (KM12) was > 100 µM (inactive), the GI50 (LOX IMVI) was > 100 µM (inactive) and the GI50 (LXFL 529) was > 100 µM (inactive). For the same molecule, the GI50 (M14) was > 100 µM (inactive), the GI50 (M19-MEL) was > 100 µM (inactive) and the GI50 (MOLT-4) was > 100 µM (inactive). The GI50 (Malme-3M) was > 100 µM (inactive), the GI50 (NCI-H226) was > 100 µM (inactive) and the GI50 (NCI-H23) was > 100 µM (inactive). For the same molecule, the GI50 (NCI-H460) was > 100 µM (inactive), the GI50 (NCI-H522) was > 100 µM (inactive) and the GI50 (OVCAR-3) was > 100 µM (inactive). The GI50 (OVCAR-4) was > 100 µM (inactive), the GI50 (OVCAR-5) was > 100 µM (inactive) and the GI50 (OVCAR-8) was > 100 µM (inactive). For the same molecule, the GI50 (RPMI-8226) was > 100 µM (inactive), the GI50 (RXF 393) was > 100 µM (inactive) and the GI50 (RXF 631) was > 100 µM (inactive). For the same molecule, the GI50 (SF-268) was > 100 µM (inactive), the GI50 (SF-295) was 67.3 µM (inactive) and the GI50 (SF-539) was > 100 µM (inactive). For the same molecule, the GI50 (SK-MEL-28) was > 100 µM (inactive), the GI50 (SK-MEL-5) was > 100 µM (inactive) and the GI50 (SK-OV-3) was > 100 µM (inactive). For the same molecule, the GI50 (SN12C) was > 100 µM (inactive), the GI50 (SNB-19) was > 100 µM (inactive) and the GI50 (SNB-75) was 57.8 µM (inactive). For the same molecule, the GI50 (SNB-78) was > 100 µM (inactive), the GI50 (SR) was > 100 µM (inactive) and the GI50 (SW-620) was > 100 µM (inactive). The GI50 (TK-10) was > 100 µM (inactive), the GI50 (U-251) was > 100 µM (inactive) and the GI50 (UACC-257) was > 100 µM (inactive). For the same molecule, the GI50 (UACC-62) was > 100 µM (inactive) and the GI50 (UO-31) was > 100 µM (inactive).
For `CC1=C2C3OC(=O)C(C)C3C(O)C[C@@]2(C)C(=O)CC1` (stereo partly specified), the GI50 (786-0) was > 100 µM (inactive), the GI50 (A498) was > 100 µM (inactive) and the GI50 (A549) was > 100 µM (inactive). The GI50 (ACHN) was > 100 µM (inactive), the GI50 (CAKI-1) was > 100 µM (inactive) and the GI50 (CCRF-CEM) was > 100 µM (inactive). The GI50 (COLO 205) was > 100 µM (inactive), the GI50 (DLD-1) was > 100 µM (inactive) and the GI50 (DMS-114) was > 100 µM (inactive). The GI50 (DMS-273) was > 100 µM (inactive), the GI50 (EKVX) was > 100 µM (inactive) and the GI50 (HCC 2998) was > 100 µM (inactive). For the same molecule, the GI50 (HCT-116) was > 100 µM (inactive), the GI50 (HCT-15) was over 100 µM and the GI50 (HL-60) was > 100 µM (inactive). For the same molecule, the GI50 (HOP-18) was > 100 µM (inactive), the GI50 (HOP-62) was > 100 µM (inactive) and the GI50 (HOP-92) was > 100 µM (inactive). The GI50 (HT-29) was > 100 µM (inactive), the GI50 (IGROV-1) was > 100 µM (inactive) and the GI50 (KM-20L2) was > 100 µM (inactive). For the same molecule, the GI50 (KM12) was > 100 µM (inactive), the GI50 (LOX IMVI) was > 100 µM (inactive) and the GI50 (LXFL 529) was > 100 µM (inactive). For the same molecule, the GI50 (M14) was > 100 µM (inactive), the GI50 (M19-MEL) was > 100 µM (inactive) and the GI50 (MOLT-4) was > 100 µM (inactive). The GI50 (Malme-3M) was > 100 µM (inactive), the GI50 (NCI-H226) was > 100 µM (inactive) and the GI50 (NCI-H460) was > 100 µM (inactive). For the same molecule, the GI50 (NCI-H522) was > 100 µM (inactive), the GI50 (OVCAR-3) was > 100 µM (inactive) and the GI50 (OVCAR-4) was > 100 µM (inactive). For the same molecule, the GI50 (OVCAR-5) was > 100 µM (inactive), the GI50 (OVCAR-8) was > 100 µM (inactive) and the GI50 (RPMI-8226) was > 100 µM (inactive). The GI50 (RXF 393) was > 100 µM (inactive), the GI50 (RXF 631) was > 100 µM (inactive) and the GI50 (SF-268) was > 100 µM (inactive). The GI50 (SF-295) was > 100 µM (inactive), the GI50 (SF-539) was > 100 µM (inactive) and the GI50 (SK-MEL-28) was > 100 µM (inactive). For the same molecule, the GI50 (SK-MEL-5) was > 100 µM (inactive), the GI50 (SK-OV-3) was > 100 µM (inactive) and the GI50 (SN12C) was > 100 µM (inactive). For the same molecule, the GI50 (SNB-19) was > 100 µM (inactive), the GI50 (SNB-75) was > 100 µM (inactive) and the GI50 (SNB-78) was > 100 µM (inactive). The GI50 (SR) was > 100 µM (inactive), the GI50 (SW-620) was > 100 µM (inactive) and the GI50 (TK-10) was > 100 µM (inactive). The GI50 (U-251) was > 100 µM (inactive), the GI50 (UACC-257) was > 100 µM (inactive) and the GI50 (UACC-62) was > 100 µM (inactive). For the same molecule, the GI50 (UO-31) was > 100 µM (inactive).

Reference: ChEMBL document CHEMBL1201862, “PubChem BioAssay data set” (2004)
